The record followed here is patent US20180110796A1, “COMPOSITIONS AND METHODS FOR THE TREATMENT OF HBV INFECTION” (Spring Bank Pharmaceuticals, Inc., priority 2015, published 2018).

In assay [1] the test system is wild type HBV or resistant variants of HBV (polymerase M204V, M204I, L180M, L180M/M204V, N236T). Briefly: Antiviral assays in cells chronically infected with wild type HBV or resistant variants (Example 4). Conditions: added to the cells daily for nine consecutive days. Type of assay: cell-based. The procedure: Antiviral assays were carried out in cells chronically infected with resistant variants of HBV. In order to gauge the efficacy of Formula (IIa) and the antiviral nucleoside analogs lamivudine (3TC) and adefovir dipivoxil (ADV) against the tested strains, the in vitro activity (EC50, μM) was determined using six different cell samples chronically infected with HBV. Each cell sample was infected with either wild type HBV or a resistant variant of HBV, wherein the resistant variants comprise mutations in the HBV polymerase (P) at the following amino acid positions: M204V, M204I, L180M, L180M/M204V, and N236T. In each assay, Formula (IIa), 3TC, or ADV was added to the cells daily for nine consecutive days.

For assay [2], the system named is woodchuck hepatitis virus (WHV). The assay is described as follows: Formula (IIa) in combination with entecavir, sequential oral treatment of chronic WHV carrier woodchucks (Example 3). Type of assay: in vivo, woodchuck (Marmota monax). From the text: Ten (10) woodchucks chronically infected with WHV were used. Woodchucks were born in captivity and were inoculated at 3 days of age with cWHV7P2a inoculum, then reared until 11 months of age. Prior to the study, woodchucks were confirmed as established chronic carriers of WHV based on established criteria including the presence of WHV surface antigen (WHsAg), antibody against […], and WHV DNA. Woodchucks used in the study were of both gender and approximately between 12 and 14 months of age at the start of the study.
Two (2) groups of five (5) chronic WHV carrier woodchucks each were used in the study:
Group 1 was orally treated for 4 weeks with ETV at a daily dose of 0.5 mg/kg starting at T0, followed by add-on treatment with Formula (IIa) for 12 weeks at a daily dose of 30 mg/kg. Woodchucks were then followed for a total of 24 weeks.
Group 2 was orally treated for 12 weeks with Formula (IIa) at a daily dose of 30 mg/kg starting at T0, followed by add-on treatment with ETV for 4 weeks at a daily dose of 0.5 mg/kg. Woodchucks were then also followed for a total of 24 weeks.
Formula (IIa) was supplied as a pre-weighed powder in individual containers. An amount of powder sufficient to treat all 10 pre-weighed woodchucks per day with Formula (IIa) was mixed directly with woodchuck diet powder (Dyets Inc., Bethlehem, Pa.) and then suspended with HPLC water. The drug was orally administered with a dose syringe at T0 (Group 2) or after 4 weeks of treatment with ETV (Group 1), and thereafter every day for 12 weeks (84 days). Drug dosing was then followed by an extra 2 ml of woodchuck liquid diet to ensure complete consumption of Formula (IIa).
ETV was provided as powder. An amount of powder sufficient to treat all 10 woodchucks per day was suspended in isotonic saline at a concentration of 0.5 mg/ml. A volume (ml) of drug solution equivalent to the body weight (kg) of an individual woodchuck was then mixed with approximately 3-5 ml of woodchuck liquid diet and administered orally with a dose syringe at T0 (Group 1) or after 12 weeks of treatment with Formula (IIa) (Group 2), and thereafter every day for 4 weeks (28 days). ETV dosing was followed by an extra 2 ml of woodchuck liquid diet to ensure complete consumption of drug.
Prior to administration of Formula (IIa) or ETV at T0, then weekly until the end of the study at week 24, whole blood samples were drawn from each woodchuck under ketamine/xylazine anesthesia for determinations of serum WHV DNA, WHsAg, and anti-WHs (see Summary Table below). […] Blood samples were kept at room temperature following collection and serum harvested upon observation of clot retraction. Harvested serum was transferred to microcentrifuge tubes and stored frozen at −70° C. until use.
The induction of an innate immune response in peripheral blood and liver of woodchucks by combination treatment with Formula (IIa) and ETV were determined via real time PCR-based assays. Whole blood samples were obtained prior to the start of treatment with Formula (IIa) at T0, and then at weeks 4, 10, 16, 20, and 24 (Group 1) or at weeks 6, 12, 16, 20, and 24 (Group 2) (see Summary Table below). Whole blood was drawn into PAXgene blood tubes at the indicated time points and stored at −70° C. until use. Total RNA was isolated from whole blood and treated with DNase using the PAXgene Blood miRNA Kit (Quiagen). This was followed by reverse transcription of mRNA into cDNA and amplification of host immune response genes by real time PCR. Woodchuck cytokine and interferon-stimulated genes included IFN-α, IFN-β, interleukin 6 (IL-6), 2′-5′-oligoadenylate synthetase 1 (OAS-1), interferon-induced 17 kDa protein (ISG15), and interferon gamma-induced protein 10 (IP-10or CXCL10). Woodchuck 18S rRNA expression was used to normalize target gene expression. […]

The test system is the same in assay [3]. Briefly: Antiviral activity of Formula (Ia), intraperitoneal, in chronic WHV carrier woodchucks (Example 1). It counts as in vivo, woodchuck (Marmota monax). On the procedure:
Three groups of five chronic WHV carrier woodchucks were used in this in this study. Formula (Ia) was administered intraperitoneally to two groups for a total of 4 weeks. Groups for drug treatment received Formula (Ia) at either 10 mg/kg/day or 30 mg/kg/day. The third group received physiological saline intraperitoneally and served as placebo-treated controls.
Blood samples for WHV serology, serum […], and hematological and biochemical profiles were obtained prior to the start of treatment and taken thereafter according to the study design. The body weight of each subject was recorded when the woodchucks were anesthetized and bled. The recorded body weights of the drug-treated woodchucks were compared to the placebo-treated control woodchucks to assess possible drug toxicity. WHsAg and anti-WHs and anti-WHc antibodies were determined qualitatively using established ELISA protocols. Dilutions of serum were used to ensure the detection of these markers […] conditions.
WHV DNA in serum was initially measured by dot blot hybridization and quantified by comparing signals of test specimens and standards of known WHV DNA concentration using a homologous probe. […] Quantitative WHV nucleic acid analyses were also performed using a real-time PCR assay with samples containing serum WHV DNA below the limit of detection by dot blot analysis. […]

Each structure is given as a SMILES string.

Regarding `CC(C)(C)C(=O)OCOP(=O)(COCCn1cnc2c(N)ncnc21)OCOC(=O)C(C)(C)C` [ADV, adefovir dipivoxil, reference compound], the “efficacy against cells infected with wild type and resistant HBV strains (in vitro activity, FIG. 31)” value in assay [1] was “efficacious against cells infected with all the HBV strains tested”.
Regarding `C=C1[C@H](CO)[C@@H](O)C[C@@H]1n1cnc2c(=O)[nH]c(N)nc21` [ETV, entecavir, reference compound], the “expected suppression of serum viremia” value in assay [2] (ETV 0.5 mg/kg daily oral for 4 weeks, expectation from previous studies) is recorded as 3-4 log10. In addition, the “reductions in serum WHV DNA from pretreatment level during the 4 weeks of ETV” value in assay [2] (ETV 0.5 mg/kg daily oral, Group 1) is recorded as “marked reductions”. Besides, the “reductions in serum WHsAg from pretreatment level during the 4 weeks of ETV administration” value in assay [2] (ETV 0.5 mg/kg, most woodchucks of Group 1) is “marked reductions”.
Regarding `COC1[C@@H](OP(=O)(S)OC[C@H]2O[C@@H](n3cnc4c(N)ncnc43)C[C@H]2O)[C@@H](CO)O[C@H]1n1ccc(=O)[nH]c1=O` (stereo partly drawn) [Formula (Ia)], in assay [3] (30 mg/kg, end of treatment at week 4), the “staining intensity of cytoplasmic WHcAg in liver tissues compared to placebo controls” value is “significantly decreased”. For the same compound, the “consistent reductions in serum WHsAg and in hepatic expression of WHcAg and WHsAg” value in assay [3] (10 and 30 mg/kg/day, 4 weeks) is “not observed on a dose-response basis”.
